Measured values reported in paper PMC4171606, “A novel copper(I) complex induces ER-stress-mediated apoptosis and sensitizes B-acute lymphoblastic leukemia cells to chemotherapeutic agents” (Oncotarget, 2014).
Where two headings read alike, the source gives them in different places.

What was measured:
RS4;11 and SEM cells [1] = assay: MTT viability with CP in presence of pan-caspase inhibitor, 48 h; type: cell-based, human; details: z-VAD.fmk 100 μM with CP 2.5 μM and 5 μM
Experimental: FIGURE 2 CP induces caspase-dependent apoptosis without mitochondria involvement (A) Assessment of mitochondrial membrane potential (ΔΨmt) after treatment of RS4;11 and SEM cells with CP (2.5 μM) for the indicated times. Cells were stained with the fluorescent probe JC-1. Data are represented as mean ± S.E.M. of three independent experiments. (B) Flow cytometric analysis of RS4;11 and SEM cells treated with CP (2.5 μM) for 24 h showing cytochrome c labeled with a monoclonal antibody conjugated to FITC. Representative image of three experiments with similar results. (C) Cells were incubated with CP 2.5 μM and 5 μM in the presence or absence of the pan-caspase inhibitor z-VAD.fmk (100 μM). Cell viability was determined after 48 h by MTT assay. Data are represented as mean ± S.E.M. of three independent experiments performed in triplicate. *p<0.01 vs CP alone. (D) Western blot analysis of Bcl-2, cleaved caspase-12, caspase-9, cleaved caspase-7, caspase-3 and PARP after treatment of SEM and RS4;11 cells with CP (2.5 μM) for the indicated times. To confirm equal protein loading, each membrane was stripped and reprobed with anti-β-actin antibody.
We therefore evaluated whether the inhibition of caspases with the pan-caspase inhibitor z-VAD.fmk would prevent cell death.

RS4;11 cells = assay: Combined drugs analysis, MTT 48 h, Chou and Talalay; type: cell-based; details: Homo sapiens
Experimental: (§1) SEM and RS4;11 cell lines were exposed to dexamethasone (Dex), daunorubicine (Dauno), cytarabine (Ara-C) and vincristine (Vcr) in the presence or absence of CP, at fixed combination ratios.
(§2) To test potential synergistic, additive, or antagonistic effects of the combination of CP and drugs commonly used in B-ALL treatment, we performed MTT experiments as follows.
(§3) SEM, and RS4;11 cells were treated for 48 hours with one of the most used chemotherapeutic agents: cytarabine (Aractyn, Pfizer), daunorubicin (Pfizer), vincristine (Pfizer), or dexamethasone (Sigma-Aldrich). CP was also added to each drug solution, at fixed combination ratios. Cell viability was determined after 48 hours of treatment by MTT test as described above. To determine the synergistic, additive, or antagonistic effects of the drug combinations, we used CalcuSyn software (version 2.0, Biosoft, Cambridge, United Kingdom) based on the method of the combination index (CI) described by Chou and Talalay. Synergy, additivity and antagonism were defined by a CI<1, CI=1, or CI>1, respectively.

SEM cells = assay: as above; type: cell-based; details: Homo sapiens
Experimental: as §1, §2, §3

RS4;11 and SEM cells [2] = assay: Annexin-V/PI assay with CP in presence of cycloheximide, 12 h; type: cell-based, human; details: CHX 2 μg/ml with CP 2.5 μM
Experimental: To investigate if proteasome inhibition and ER stress could be responsible for CP-induced cell death, we assayed apoptosis and ER stress markers in the presence of cycloheximide (CHX), an inhibitor of protein synthesis that antagonizes ER-stress agents. The inhibition of protein synthesis reduced the accumulation of unfolded proteins in the ER and therefore ER-stress induced apoptosis.
Furthermore, CHX induced a remarkable reduction of GRP78 and CHOP expression, induced after 12 h of treatment with CP, when CHOP and GRP78 were highly expressed (Figure 5, panel C).
FIGURE 5 CP induces ER stress mediated apoptosis SEM (A) and RS4;11 (B) cells were incubated with CP (2.5 μM) in the presence or absence of cycloheximide (CHX) for 12 h, at the concentration of 2 μg/ml. Cells were analyzed by flow cytometry after double staining with Annexin-V-FITC and PI. Data are represented as mean ± S.E.M of three independent experiments. *p<0.05. (B) Western blot analysis showing the expression of GRP78 and CHOP after treatment of RS4;11 and SEM cells with CP (2.5 μM) for 12 h in the presence or absence of CHX (2 μg/ml).

[3] = system: human leukemia cell lines; assay: MTT growth inhibition, panel of twelve leukemia cell lines, 72 h; type: cell-based; details: all cell lines, same experimental conditions as CP, data not shown
Experimental: [Cu(thp)4][PF6] (CP) was evaluated for its growth inhibition activity on a panel of twelve different human leukemia cell lines (five B-acute lymphoblastic leukemia, three T-acute lymphoblastic leukemia, three acute myeloid leukemia and one chronic myeloid leukemia). Cells were treated for 72 h with CP and cell viability was evaluated by MTT test. […] This abnormal high expression of proteasomal proteins and mRNA seem to be correlated to the hyperproliferation of these cancer cells and to the sensitivity towards proteasome inhibitors.
The human leukemia cell lines RS 4;11, SEM, REH, RCH-ACV, MHH-CALL2, Jurkat, CCRF-CEM, HSB2, HL-60, K562, THP-1, MV4;11 were purchased from the American Type Culture Collection. Cells were cultured in RPMI 1640 (Life Technologies, Italy) supplemented with 10% fetal bovine serum (FBS), glutamine (2 mM; Life Technologies, Italy), penicillin (100 U/ml; Life Technologies, Italy) and streptomycin (100 μg/ml; Life Technologies, Italy), and maintained at 37°C in a humidified atmosphere with 5% CO2. The cytotoxic activity of CP was determined using a standard 3-[4,5-dimethylthiazol-2-yl]-2,5-diphenyltetrazodium bromide (MTT) based colorimetric assay (Sigma-Aldrich, Italy). Briefly, cells were seeded at a density of 2×10^4 cells/well in 96-well microtiter plates. After 24 h, cells were exposed to the test compound. After different times, cell survival was determined by the addition of an MTT solution as previously described.

[4] = RS4;11, 48 h, MTT, drug alone or with CP at fixed molar ratio, mean ± SE, read-out: GI50
[5] = SEM, MTT, drug alone or with CP at fixed molar ratio, mean ± SE, read-out: GI50

GI50 (RS4;11 cells; [4]) [nM] | SMILES | GI50 (SEM cells; [5]) [nM] | other results
 | CC(C)[C@H](NC(=O)OCc1ccccc1)C(=O)N[C@@H](C)C(=O)NC(CC(=O)O)C(=O)CF (mixture of isomers) [z-VAD.fmk, N-[(benzyloxy)carbonyl]-L-Val-Ala-DL-Asp-fluoromethylketone] |  | cell viability of CP-treated cells (RS4;11 and SEM cells [1]): significantly increased cell viability
21 ± 7.1 | Nc1ccn([C@@H]2O[C@H](CO)[C@@H](O)[C@@H]2O)c(=O)n1 [AraC, cytarabine] | 22.3 ± 1.8 | 
 | C[C@@H]1C[C@@H]([C@H](O)CC2CC(=O)NC(=O)C2)C(=O)[C@@H](C)C1 [CHX, cycloheximide] |  | protection from CP induced cell death (RS4;11 and SEM cells [2]): significant protection from CP induced cell death
 | [Cl][Cu][Cl] [CuCl2] |  | concentration giving only a slight reduction of cell viability [3]: > 250 µM
 | [Cl][Cu] [CuCl] |  | concentration giving only a slight reduction of cell viability [3]: > 250 µM
 | COc1cccc2c1C(=O)c1c(O)c3c(c(O)c1C2=O)C[C@@](O)(C(C)=O)C[C@@H]3O[C@H]1C[C@H](N)[C@H](O)[C@H](C)O1 [Dauno, daunorubicin] |  | GI50 (RS4;11 cells; RS4-11, 48 h): 19.2 ± 1.9 nM; GI50 (SEM cells): 96 ± 14.1 nM
0.12 ± 0.025 | C[C@@H]1C[C@H]2[C@@H]3CCC4=CC(=O)C=C[C@]4(C)[C@@]3(F)[C@@H](O)C[C@]2(C)[C@@]1(O)C(=O)CO [Dex, dexamethasone] | 643 ± 44.2 | 
0.071 ± 0.042 | CC[C@]1(O)C[C@H]2CN(CCc3c([nH]c4ccccc34)[C@@](C(=O)OC)(c3cc4c(cc3OC)N(C=O)[C@H]3[C@@](O)(C(=O)OC)[C@H](OC(C)=O)[C@]5(CC)C=CCN6CC[C@]43[C@@H]65)C2)C1 [Vcr, vincristine] | 13.1 ± 1.2 | 
